Experimental data published in ChEMBL document CHEMBL5154753, “Discovery and Structural Optimization of Toddacoumalone Derivatives as Novel PDE4 Inhibitors for the Topical Treatment of Psoriasis” (J Med Chem, 2022).
The source made the active and inactive calls. The rule behind the calls is not given here.

Legend:
[1] = Clearance in ICR mouse at 10 mg/kg, iv measured upto 24 hrs by LC-MS/MS analysis; assay type: ADME, organism-based; settings: in vivo
Mus musculus [2] = species on record: Mus musculus; assay: Anti-psoriatic activity in IMQ-induced BALB/c psoriasis mouse model assessed as reduction in dermal cell proliferation at 62.5 mg as 4% ointment, TOP daily for 7 days by Ki67+ expression based immunohistochemistry analysis; assay type: functional, organism-based; settings: time 7.0 day
Mus musculus [3] = species on record: Mus musculus; assay: Anti-psoriatic activity in IMQ-induced BALB/c psoriasis mouse model assessed as reduction in epidermal cell proliferation at 62.5 mg as 2% ointment, TOP daily for 7 days by Ki67+ expression based immunohistochemistry analysis; assay type: functional, organism-based; settings: time 7.0 day
[4] = Toxicity in BALB/c mouse assessed as body weight loss at 62.5 mg as 4% ointment, TOP daily and measured upto 7 days; settings: in vivo, topical_or_ocular, 168 h, time < 7 day
[5] = molecular target: cGMP-specific 3',5'-cyclic phosphodiesterase (Homo sapiens, UniProt O76074); assay: Inhibition of PDE5A1 (535 to 860 residues) (unknown origin) expressed in Escherichia coli BL21 using [3H-GMP] or [3H-AMP] as substrate incubated for 15 mins by liquid scintillation counting method
[6] = molecular target: 3',5'-cyclic-AMP phosphodiesterase 4B (Homo sapiens, UniProt Q07343); assay: Inhibition of PDE4B2 (152 to 487 residues) (unknown origin) expressed in Escherichia coli BL21 using [3H-GMP] or [3H-AMP] as substrate incubated for 15 mins by liquid scintillation counting method
[7] = Volume of distribution at steady state in ICR mouse at 10 mg/kg, iv measured upto 24 hrs by LC-MS/MS analysis; assay type: ADME, organism-based; settings: in vivo, read-out: Vdss
[8] = Tmax in ICR mouse at 30 mg/kg, po measured upto 24 hrs by LC-MS/MS analysis; assay type: ADME, organism-based; settings: in vivo
[9] = Stability in human liver microsomes assessed as half life measure upto 45 mins in presence of NADPH by LC-MS analysis; assay type: ADME, Microsome
[10] = Toxicity in BALB/c mouse assessed as skin lesions at 62.5 mg as 4% ointment, TOP daily and measured upto 7 days; settings: in vivo, topical_or_ocular, 168 h, time < 7 day
[11] = Cmax in ICR mouse at 30 mg/kg, po measured upto 24 hrs by LC-MS/MS analysis; assay type: ADME, organism-based; set-up: time < 24 hrs, dose 30 mg/kg, route po; settings: in vivo
Mus musculus [12] = assay: Anti-psoriatic activity in IMQ-induced BALB/c psoriasis mouse model assessed as reduction IMQ- induced immune response by measuring change in spleen weight at 10 mg/kg, po for 7 days; assay type: functional, organism-based; settings: time 7.0 day
[13] = molecular target: cGMP-dependent 3',5'-cyclic phosphodiesterase (Homo sapiens, UniProt O00408); assay: Inhibition of PDE2A (580 to 919 residues) (unknown origin) expressed in Escherichia coli BL21 using [3H-GMP] or [3H-AMP] as substrate incubated for 15 mins by liquid scintillation counting method
Mus musculus [14] = species on record: Mus musculus; assay: Anti-psoriatic activity in IMQ-induced BALB/c psoriasis mouse model assessed as change in skin thickness at 62.5 mg as 4% ointment, TOP daily for 7 days by hematoxylin and eosin staining based confocal laser scanning microscopy; assay type: functional, organism-based; settings: time 7.0 day
[15] = molecular target: 3',5'-cyclic-AMP phosphodiesterase 4D (Homo sapiens, UniProt Q08499); assay: Inhibition of PDE4D2 (86 to 413 residues) (unknown origin) expressed in Escherichia coli BL21 using [3H-GMP] or [3H-AMP] as substrate incubated for 15 mins by liquid scintillation counting method
[16] = AUC (0 to infinity) in ICR mouse at 10 mg/kg, iv measured upto 24 hrs by LC-MS/MS analysis; assay type: ADME, organism-based; set-up: time < 24 hrs, dose 10 mg/kg, route iv; settings: in vivo
RAW264.7 = assay: Anti-inflammatory activity against mouse RAW264.7 cells assessed as decrease in LPS-induced TNF-alpha mRNA levels incubated for 4 hrs followed LPS-stimulation for 24 hrs by SYBR green staining based qRT-PCR analysis; assay type: functional, cell-based; settings: time 28.0 hrs, DDE = dose-dependent effect
[17] = Toxicity in BALB/c mouse assessed as skin lesions at 62.5 mg as 2% ointment, TOP daily and measured upto 7 days; settings: in vivo, topical_or_ocular, 168 h, time < 7 day
[18] = AUC (0 to t) in ICR mouse at 10 mg/kg, iv measured upto 24 hrs by LC-MS/MS analysis; assay type: ADME, organism-based; set-up: dose 10 mg/kg, time < 24 hrs, route iv; settings: in vivo
[19] = Toxicity in IMQ-induced BALB/c psoriasis mouse model assessed as body weight loss at 10 mg/kg, po for 7 days; assay type: organism-based; settings: in vivo, 168 h, time 7 day
[20] = Toxicity in IMQ-induced BALB/c psoriasis mouse model assessed as body weight loss at 62.5 mg as 2% ointment, TOP daily and measured upto 7 days; settings: in vivo, topical_or_ocular, 168 h, time < 7 day
Mus musculus [21] = species on record: Mus musculus; assay: Anti-psoriatic activity in IMQ-induced BALB/c psoriasis mouse model assessed as reduction in thickness score at 62.5 mg as 2% ointment, TOP daily and measured upto 7 days; assay type: functional, organism-based; settings: time <= 7.0 day, DDE = dose-dependent effect
Mus musculus [22] = species on record: Mus musculus; assay: Anti-psoriatic activity in IMQ-induced BALB/c psoriasis mouse model assessed as reduction in scales score at 62.5 mg as 2% ointment, TOP daily and measured upto 7 days; assay type: functional, organism-based; settings: time <= 7.0 day, DDE = dose-dependent effect

3',5'-cyclic-AMP phosphodiesterase 4B, sequence (Q07343 whole entry, the tested form may be a part): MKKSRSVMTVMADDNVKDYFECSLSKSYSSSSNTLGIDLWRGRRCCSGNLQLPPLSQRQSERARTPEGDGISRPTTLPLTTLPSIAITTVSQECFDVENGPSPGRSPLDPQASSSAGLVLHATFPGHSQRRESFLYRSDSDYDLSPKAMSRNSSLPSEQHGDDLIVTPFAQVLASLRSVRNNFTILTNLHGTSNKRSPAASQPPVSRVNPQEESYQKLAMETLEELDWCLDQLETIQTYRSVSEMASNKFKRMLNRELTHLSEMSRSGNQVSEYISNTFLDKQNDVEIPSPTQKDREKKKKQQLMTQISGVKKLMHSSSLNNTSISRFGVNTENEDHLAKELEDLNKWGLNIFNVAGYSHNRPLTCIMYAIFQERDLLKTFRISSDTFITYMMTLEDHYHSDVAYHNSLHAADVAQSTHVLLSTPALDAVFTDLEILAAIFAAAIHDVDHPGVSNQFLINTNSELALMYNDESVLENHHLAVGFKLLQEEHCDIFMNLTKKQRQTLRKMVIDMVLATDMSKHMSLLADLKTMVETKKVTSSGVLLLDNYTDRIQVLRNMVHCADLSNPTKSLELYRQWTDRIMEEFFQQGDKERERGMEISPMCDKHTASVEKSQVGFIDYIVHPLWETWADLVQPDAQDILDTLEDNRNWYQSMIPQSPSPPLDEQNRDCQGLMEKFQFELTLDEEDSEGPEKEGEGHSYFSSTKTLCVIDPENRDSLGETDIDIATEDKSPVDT
3',5'-cyclic-AMP phosphodiesterase 4D, sequence (Q08499 whole entry, the tested form may be a part): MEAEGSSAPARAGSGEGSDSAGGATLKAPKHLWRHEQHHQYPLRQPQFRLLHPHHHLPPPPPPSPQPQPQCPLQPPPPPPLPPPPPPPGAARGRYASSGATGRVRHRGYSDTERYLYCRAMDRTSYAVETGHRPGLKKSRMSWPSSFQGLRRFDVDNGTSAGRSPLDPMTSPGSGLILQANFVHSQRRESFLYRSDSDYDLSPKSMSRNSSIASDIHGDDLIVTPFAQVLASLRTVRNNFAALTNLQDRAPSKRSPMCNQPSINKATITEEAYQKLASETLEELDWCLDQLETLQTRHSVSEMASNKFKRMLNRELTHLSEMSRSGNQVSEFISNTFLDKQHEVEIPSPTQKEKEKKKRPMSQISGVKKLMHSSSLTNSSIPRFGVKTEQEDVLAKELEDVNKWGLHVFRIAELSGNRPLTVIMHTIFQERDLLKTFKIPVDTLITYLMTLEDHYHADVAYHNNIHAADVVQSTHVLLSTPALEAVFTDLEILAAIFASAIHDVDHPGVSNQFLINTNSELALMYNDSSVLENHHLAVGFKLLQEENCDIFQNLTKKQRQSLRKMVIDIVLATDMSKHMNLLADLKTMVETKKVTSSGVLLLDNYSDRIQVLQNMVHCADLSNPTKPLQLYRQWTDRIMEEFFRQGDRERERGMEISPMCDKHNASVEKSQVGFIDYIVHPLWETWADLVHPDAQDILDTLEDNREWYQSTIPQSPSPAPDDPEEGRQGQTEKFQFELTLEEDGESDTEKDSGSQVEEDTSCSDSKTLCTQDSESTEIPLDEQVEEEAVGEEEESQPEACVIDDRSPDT
cGMP-dependent 3',5'-cyclic phosphodiesterase, sequence (O00408 whole entry, the tested form may be a part): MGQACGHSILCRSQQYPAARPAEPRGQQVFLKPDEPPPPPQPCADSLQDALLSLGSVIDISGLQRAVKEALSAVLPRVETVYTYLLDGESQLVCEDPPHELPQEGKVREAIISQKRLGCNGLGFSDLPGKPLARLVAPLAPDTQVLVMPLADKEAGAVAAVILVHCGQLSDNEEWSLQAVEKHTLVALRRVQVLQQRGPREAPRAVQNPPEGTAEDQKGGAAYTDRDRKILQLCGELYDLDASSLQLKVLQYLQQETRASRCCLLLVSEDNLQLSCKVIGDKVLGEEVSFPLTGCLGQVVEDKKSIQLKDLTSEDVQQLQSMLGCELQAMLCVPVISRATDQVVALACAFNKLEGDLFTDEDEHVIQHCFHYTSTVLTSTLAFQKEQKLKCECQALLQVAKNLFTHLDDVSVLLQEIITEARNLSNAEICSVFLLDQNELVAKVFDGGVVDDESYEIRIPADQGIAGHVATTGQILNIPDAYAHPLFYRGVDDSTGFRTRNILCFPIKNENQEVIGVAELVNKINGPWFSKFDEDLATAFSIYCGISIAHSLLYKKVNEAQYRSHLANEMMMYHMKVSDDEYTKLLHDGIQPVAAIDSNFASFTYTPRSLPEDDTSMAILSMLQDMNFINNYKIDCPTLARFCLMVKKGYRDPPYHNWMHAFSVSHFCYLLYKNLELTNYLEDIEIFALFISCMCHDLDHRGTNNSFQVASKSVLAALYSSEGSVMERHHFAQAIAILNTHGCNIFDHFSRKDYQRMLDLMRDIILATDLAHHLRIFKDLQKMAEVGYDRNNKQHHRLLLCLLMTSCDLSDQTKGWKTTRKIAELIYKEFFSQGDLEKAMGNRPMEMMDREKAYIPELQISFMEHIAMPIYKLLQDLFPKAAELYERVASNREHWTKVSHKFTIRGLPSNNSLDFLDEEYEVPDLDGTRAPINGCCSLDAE

clearance [1]: 63.8 mL/min/kg
IC50 [5]: 4.25 µM
IC50 [6]: 3.2 nM
Vd [7]: 0.77 L/kg
Tmax [8]: 1 h
half-life [9]: 0.9 min
Cmax [11]: 391 ng/mL
IC50 [13]: 1510 nM
IC50 [15]: 3.1 nM
AUC(0-inf) [16]: 2620 ng·h/mL
AUC(0-t) at 24 h [18]: 2610 ng·h/mL
Compound: CCn1c(=O)c2c(c3ccc(C)nc31)O[C@@](C)(CCO)C[C@H]2C=C(C)C
Activity (Mus musculus [2]): Active
Activity (Mus musculus [3]): Active
Activity [4]: Non-Toxic
Activity [10]: Non-Toxic
Activity (Mus musculus [12]): Active
Activity (Mus musculus [14]): Active
Activity (RAW264.7): Dde
Activity [17]: Non-Toxic
Activity [19]: Non-Toxic
Activity [20]: Non-Toxic
Activity (Mus musculus [21]): Dde
Activity (Mus musculus [22]): Dde
